Where a name gives a salt, the structure may show the parent alone.

The IC50 is the point on the concentration scale where inhibition reaches its midpoint.

For this test, the system named is VSV-g pseudotyped HIV vector that expresses luciferase (PHIV). The experiment in a line: microbe, parasite or virus in culture. The test is classed as cell-based. Conditions: Human immunodeficiency virus 1, HEK-293T, 48 h, read-out: PHIV IC50.
For the molecule `C[C@H]1CCN(Cc2cccnc2)[C@@H]2Cn3cc(C(=O)NCc4ccc(F)cc4F)c(=O)c(O)c3C(=O)N12` [Example Z-46, (4S,12aS)—N-[(2,4-Difluorophenyl)methyl]-7-hydroxy-4-methyl-6,8-dioxo-1-(3-pyridinylmethyl)-1,2,3,4,6,8,12,12a-octahydropyrido[1′,2′:4,5]pyrazino[1,2-a]-pyrimidine-9-carboxamide], the IC50 is below 10 nM. As for `O=C(NCc1ccc(F)cc1F)c1cn2c(c(O)c1=O)C(=O)N1[C@@H](CO)CO[C@@H]1C2` [Example Z-14, (3S,11aR)—N-[(2,4-Difluorophenyl)methyl]-6-hydroxy-3-(hydroxymethyl)-5,7-dioxo-2,3,5,7,11,11a-hexahydro[1,3]oxazolo[3,2-a]pyrido[1,2-d]pyrazine-8-carboxamide], the IC50 fell in the range of 10 to 100 nM. The figure for `O=C(NCc1ccc(F)cc1F)c1cn2c(c(O)c1=O)C(=O)N1C[C@@H]3CCCCN3[C@@H]1C2` [Example Z-41, (5aS,14aS)—N-[(2,4-Difluorophenyl)methyl]-11-hydroxy-10,12-dioxo-1,2,3,4,5a,6,10,12,14,14a-decahydropyrido[1,2-a]pyrido[1′,2′:4,5]imidazo[1,2-d]pyrazine-9-carboxamide] is below 10 nM. The figure for `CC(C)CCN1CC[C@H](C)N2C(=O)c3c(O)c(=O)c(C(=O)NCc4ccc(F)cc4F)cn3C[C@@H]12` [Example Z-45, (4S,12aS)—N-[(2,4-Difluorophenyl)methyl]-7-hydroxy-4-methyl-1-(3-methylbutyl)-6,8-dioxo-1,2,3,4,6,8,12,12a-octahydropyrido[1′,2′:4,5]pyrazino[1,2-a]pyrimidine-9-carboxamide] is below 10 nM. As for `O=C(NCc1ccc(F)cc1F)c1cn2c(c(O)c1=O)C(=O)N1[C@@H](C2)OC[C@@H]2CCCC[C@@H]21` (racemic) [Example Z-35, racemic-(4aR,6aR,14aS)—N-[(2,4-Difluorophenyl)methyl]-12-hydroxy-11,13-dioxo-1,3,4,4a,5,6a,7,11,13,14a-decahydro-2H-pyrido[1′,2′:4,5]pyrazino[1,2-a][3,1]benzoxazine-10-carboxamide], the IC50 is below 10 nM. The figure for `C[C@@H]1CO[C@H]2Cn3cc(C(=O)NCc4ccc(F)cc4F)c(=O)c(O)c3C(=O)N12` [Example Z-1, (3R,11aS)—N-[(2,4-Difluorophenyl)methyl]-6-hydroxy-3-methyl-5,7-dioxo-2,3,5,7,11,11a-hexahydro[1,3]oxazolo[3,2-a]pyrido[1,2-d]pyrazine-8-carboxamide sodium salt] is below 10 nM; for `O=C(NCc1ccc(F)cc1F)c1cn2c(c(O)c1=O)C(=O)N1[C@@H](CC3CCCCC3)CO[C@@H]1C2` [Example Z-20] it is 10 to 100 nM; for `O=C(NCc1ccc(F)cc1F)c1cn2c(c(O)c1=O)C(=O)N1[C@@H](Cc3ccccc3)CO[C@@H]1C2` [Example Z-6, (3S,11aR)—N-[(2,4-Difluorophenyl)methyl]-6-hydroxy-5,7-dioxo-3-(phenylmethyl)-2,3,5,7,11,11a-hexahydro[1,3]oxazolo[3,2-a]pyrido[1,2-d]pyrazine-8-carboxamide] it is below 10 nM. The figure for `C[C@H]1CCN(Cc2ccco2)[C@@H]2Cn3cc(C(=O)NCc4ccc(F)cc4F)c(=O)c(O)c3C(=O)N12` [Example Z-33, (4S,12aS)—N-[(2,4-Difluorophenyl)methyl]-1-(1-furanylmethyl)-7-hydroxy-4-methyl-6,8-dioxo-1,2,3,4,6,8,12,12a-octahydropyrido[1′,2′:4,5]pyrazino[1,2-a]pyrimidine-9-carboxamide] is below 10 nM; for `CC(C)(C)[C@H]1CO[C@@H]2Cn3cc(C(=O)NCc4ccc(F)cc4)c(=O)c(O)c3C(=O)N21` [Example Z-12, (3S,11aR)-3-(1,1-Dimethylethyl)-N-[(4-fluorophenyl)methyl]-6-hydroxy-5,7-dioxo-2,3,5,7,11,11a-hexahydro[1,3]oxazolo[3,2-a]pyrido[1,2-d]pyrazine-8-carboxamide] it is below 10 nM. The figure for `CC(C)N1CC[C@@H](C)N2C(=O)c3c(O)c(=O)c(C(=O)NCc4ccc(F)cc4)cn3C[C@H]12` [Example Z-30, (4R,12aR)—N-[(4-Fluorophenyl)methyl]-7-hydroxy-4-methyl-1-(1-methylethyl)-6,8-dioxo-1,2,3,4,6,8,12,12a-octahydropyrido[1′,2′:4,5]pyrazino[1,2-a]pyrimidine-9-carboxamide] is below 10 nM; for `COCCN1C[C@@H]2CCCC[C@@H]2N2C(=O)c3c(O)c(=O)c(C(=O)NCc4ccc(F)cc4F)cn3C[C@@H]12` (racemic) [Example Z-54, racemic-(4aS,6aS,14aS)—N-[(2,4-Difluorophenyl)methyl]-12-hydroxy-6-[2-(methyloxy)ethyl]11,13-dioxo-1,2,3,4,4a,5,6,6a,7,11,13,14a-dodecahydropyrido[1′,2′:4,5]pyrazino[1,2-a]quinazoline-10-carboxamide] it is below 10 nM. As for `O=C(NCc1ccc(F)cc1)c1cn2c(c(O)c1=O)C(=O)N1CC[C@@H]3CCCN3[C@@H]1C2` [Example Z-7, (3aS,13aS)—N-[(4-Fluorophenyl)methyl]-8-hydroxy-7,9-dioxo-1,2,3,3a,4,5,7,9,13,13a-decahydropyrido[1′,2′:4,5]pyrazino[1,2-a]pyrrolo[1,2-c]pyrimidine-10-carboxamide], the half-inhibitory concentration (IC50) was below 10 nM. The figure for `C[C@H]1CO[C@@H]2Cn3cc(C(=O)NCc4ccc(F)cc4F)c(=O)c(O)c3C(=O)N12` [Example Z-9, (3S,11aR)—N-[(2,4-Difluorophenyl)methyl]-6-hydroxy-3-methyl-5,7-dioxo-2,3,5,7,11,11a-hexahydro[1,3]oxazolo[3,2-a]pyrido[1,2-d]pyrazine-8-carboxamide sodium salt] is below 10 nM; for `O=C(NCc1ccc(F)cc1F)c1cn2c(c(O)c1=O)C(=O)N1[C@@H](C2)OC[C@@H]2CCC[C@@H]21` (racemic) [Example Z-52, racemic-(3aR,5aR,13aS)—N-[(2,4-Difluorophenyl)methyl]-11-hydroxy-10,12-dioxo-1,2,3,3a,4,5a,6,10,12,13a-decahydrocyclopenta[d]pyrido[1′,2′:4,5]pyrazino[2,1-b][1,3]oxazine-9-carboxamide] it is below 10 nM; for `C[C@H]1CCN(C2CCSCC2)[C@@H]2Cn3cc(C(=O)NCc4ccc(F)cc4F)c(=O)c(O)c3C(=O)N12` [Example Z-60, (4S,12aS)—N-[(2,4-Difluorophenyl)methyl]-7-hydroxy-4-methyl-6,8-dioxo-1-(tetrahydro-2H-thiopyran-4-yl)-1,2,3,4,6,8,12,12a-octahydropyrido[1′,2′:4,5]pyrazino[1,2-a]pyrimidine-9-carboxamide] it is below 10 nM. The figure for `CC(C)CCN1CC[C@@H](C)N2C(=O)c3c(O)c(=O)c(C(=O)NCc4ccc(F)cc4F)cn3C[C@H]12` [Example Z-43] is below 10 nM; for `O=C(NCc1ccc(F)cc1F)c1cn2c(c(O)c1=O)C(=O)N1[C@H](c3ccccc3)[C@H](c3ccccc3)O[C@@H]1C2` [Example Z-24, (2S,3R,11aR)—N-[(2,4-Difluorophenyl)methyl]-6-hydroxy-5,7-dioxo-2,3-diphenyl-2,3,5,7,11,11a-hexahydro[1,3]oxazolo[3,2-a]pyrido[1,2-d]pyrazine-8-carboxamide] it is below 10 nM.

As to `CSCC[C@H]1CO[C@@H]2Cn3cc(C(=O)NCc4ccc(F)cc4F)c(=O)c(O)c3C(=O)N12` [Example Z-26, (2S,11aR)—N-[(2,4-Difluorophenyl)methyl]-6-hydroxy-3-[2-(methylthio)ethyl]-5,7-dioxo-2,3,5,7,11,11a-hexahydro[1,3]oxazolo[3,2-a]pyrido[1,2-d]pyrazine-8-carboxamide], the IC50 was below 10 nM. Regarding `C[C@H]1CCN(C2CCC2)[C@@H]2Cn3cc(C(=O)NCc4ccc(F)cc4F)c(=O)c(O)c3C(=O)N12` [Example Z-59, (4S,12aS)-1-Cyclobutyl-N-[(2,4-difluorophenyl)methyl]-7-hydroxy-4-methyl-6,8-dioxo-1,2,3,4,6,8,12,12a-octahydropyrido[1′,2′:4,5]pyrazino[1,2-a]pyrimidine-9-carboxamide], the IC50 is below 10 nM. The figure for `CS(=O)(=O)CC[C@H]1CO[C@@H]2Cn3cc(C(=O)NCc4ccc(F)cc4F)c(=O)c(O)c3C(=O)N12` [Example Z-27, (3S,11aR)—N-[(2,4-Difluorophenyl)methyl]-6-hydroxy-3-[2-(methylsulfonyl)ethyl]-5,7-dioxo-2,3,5,7,11,11a-hexahydro[1,3]oxazolo[3,2-a]pyrido[1,2-d]pyrazine-8-carboxamide] is above 100 nM; for `COC[C@H]1[C@H](c2ccccc2)OC2Cn3cc(C(=O)NCc4ccc(F)cc4F)c(=O)c(O)c3C(=O)N21` (stereo partly shown) [Example Z-19] it is below 10 nM; for `CC[C@H](C)[C@H]1CO[C@@H]2Cn3cc(C(=O)NCc4ccc(F)cc4F)c(=O)c(O)c3C(=O)N12` [Example Z-8, (3S,11aR)—N-[(2,4-Difluorophenyl)methyl]-6-hydroxy-3-[(1S)-1-methylpropyl]-5,7-dioxo-2,3,5,7,11,11a-hexahydro[1,3]oxazolo[3,2-a]pyrido[1,2-d]pyrazine-8-carboxamide sodium salt] it is 10 to 100 nM.

`O=C(NCc1ccc(F)cc1F)c1cn2c(c(O)c1=O)C(=O)N1[C@H](Cc3ccccc3)CO[C@H]1C2` [Example Z-16, (3R,11aS)—N-[(2,4-Difluorophenyl)methyl]-6-hydroxy-5,7-dioxo-3-(phenylmethyl)-2,3,5,7,11,11a-hexahydro[1,3]oxazolo[3,2-a]pyrido[1,2-d]pyrazine-8-carboxamide]: the IC50 was below 10 nM. The figure for `C[C@H]1CCN(Cc2nccs2)[C@@H]2Cn3cc(C(=O)NCc4ccc(F)cc4F)c(=O)c(O)c3C(=O)N12` [Example Z-34, (4S,12aS)—N-[(2,4-Difluorophenyl)methyl]-7-hydroxy-4-methyl-6,8-dioxo-1-(1,3-thiazol-2-ylmethyl)-1,2,3,4,6,8,12,12a-octahydropyrido[1′,2′:4,5]pyrazino[1,2-a]pyrimidine-9-carboxamide] is below 10 nM.

These data come from patent US11267823B2, “Substituted 1,2,3,3a,4,5,7,9,13,13a-decahydropyrido[1′,2′:4,5]pyrazino[1,2-a]pyrrolo[1,2-c]pyrimidines having HIV integrase inhibitory activity” (Shionogi & Co., Ltd., priority 2005, dated 2022).
